Results as given in patent US8916599B2, “1H-benz imidazole-5-carboxamides as anti-inflammatory agents” (Orexo AB, priority 2008, dated 2014).

Molecular target: T1, recombinant human mPGES-1 (Homo sapiens, UniProt O14684)
T1 construct: made in house; host or cells: Rosetta E. coli (microsomal/membrane fraction)
T1 sequence (O14684 1-152): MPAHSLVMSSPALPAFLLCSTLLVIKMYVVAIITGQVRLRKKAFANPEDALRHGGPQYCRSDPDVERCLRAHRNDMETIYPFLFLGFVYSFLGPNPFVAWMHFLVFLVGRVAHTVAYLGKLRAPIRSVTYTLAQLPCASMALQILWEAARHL
Experiment: mPGES-1 inhibition test (microsomes, PGH2 substrate, HTRF detection of PGE2)
Type: biochemical
Conditions: for inhibition at 10 µM / % inhib.: inhibition of mPGES-1 at 10 μM; for inhibition at 1 µM: inhibition of mPGES-1 at 1 μM (marked in cell)
Method in brief: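 First, inhibitor is incubated with microsomal enzyme from Rosetta E. coli in KPi pH 7.4 containing 2.5 mM GSH for 25 minutes at room temperature. Next, PGH2 is added and stopped after one minute with FeCl2 stop solution. Finally, diluted samples undergo HTRF PGE2 quantification.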

Compound	inhibition at 10 µM	other results
O=C(Nc1nc2c(s1)CCC2)c1ccc2[nH]c(Nc3c(Cl)cccc3Cl)nc2c1 [Example 78, 2-(2,6-Dichloro-phenylamino)-1H-benzimidazole-5-carboxylic acid (5,6-dihydro-4H-cyclopentathiazol-2-yl)-amide]	90%	–
Cn1c(Nc2c(Cl)cccc2Cl)nc2cc(C(=O)NCc3cn4cc(Cl)ccc4n3)c(F)cc21 [Example 564, N-((6-Chloroimidazo[1,2-a]pyridin-2-yl)methyl)-2-(2,6-dichlorophenylamino)-6-fluoro-1-methyl-1H-benzimidazole-5-carboxamide]	70%	–
COCCCn1c(Nc2c(Cl)cccc2Cl)nc2cc(C(=O)Nc3cc(Cl)ccn3)ccc21 [Example 274, 2-(2,6-Dichloro-phenylamino)-1-(3-methoxy-propyl)-1H-benzimidazole-5-carboxylic acid (4-chloro-pyridin-2-yl)-amide]	100%	–
Cn1c(Nc2c(Cl)cccc2Cl)nc2cc(C(=O)NCCC3CC3)c(F)cc21 [Example 484, N-(2-Cyclopropylethyl)-2-(2,6-dichlorophenylamino)-6-fluoro-1-methyl-1H-benzimidazole-5-carboxamide]	95%	–
O=C(Nc1cc(Cl)ccn1)c1ccc2c(c1)nc(Nc1c(Cl)cccc1Cl)n2CC(=O)N1CCOCC1 [Example 275, 2-(2,6-Dichloro-phenylamino)-1-(2-morpholin-4-yl-2-oxo-ethyl)-1H-benzimidazole-5-carboxylic acid (4-chloro-pyridin-2-yl)-amide]	96%	–
N#CC1(NC(=O)c2ccc3[nH]c(Nc4c(Cl)cccc4Cl)nc3c2)CCCCC1 [Example 231, 2-(2,6-Dichloro-phenylamino)-1H-benzimidazole-5-carboxylic acid (1-cyano-cyclohexyl)-amide]	86%	–
Cn1c(Nc2c(Cl)cccc2Cl)nc2cc(C(=O)Nc3ccc(Br)cc3)c(F)cc21 [Example 167, 2-(2,6-Dichloro-phenylamino)-6-fluoro-1-methyl-1H-benzimidazole-5-carboxylic acid (4-bromo-phenyl)-amide]	93%	–
O=C(Nc1cccc(Cl)c1)c1cc2nc(Nc3c(Cl)ccc(Cl)c3F)[nH]c2cc1F [Example 598, 2-(3,6-Dichloro-2-fluoro-phenylamino)-N-(3-chlorphenyl)-6-fluoro-1H-benzimidazole-5-carboxamide]	100%	–
CCCCCCNC(=O)c1cc2nc(Nc3c(F)cccc3Cl)n(C)c2cc1F [Example 458, 2-(2-Chloro-6-fluorophenylamino)-6-fluoro-N-hexyl-1-methyl-1H-benzimidazole-5-carboxamide]	99%	–
Cn1c(Nc2c(Cl)cccc2Cl)nc2cc(C(=O)NCC3CCCO3)ccc21 (stereo not shown) [Example 261, 2-(2,6-Dichloro-phenylamino)-1-methyl-1H-benzimidazole-5-carboxylic acid (tetrahydro-furan-2-ylmethyl)-amide]	92%	–
Cn1c(Nc2c(Cl)cccc2Cl)nc2cc(C(=O)Nc3cccc(Cl)n3)ccc21 [Example 347, 2-(2,6-Dichloro-phenylamino)-1-methyl-1H-benzimidazole-5-carboxylic acid (6-chloro-pyridin-2-yl)-amide]	100%	–
O=C(Nc1ccc(Br)cc1)c1ccc2[nH]c(Nc3ccc(Cl)cc3Cl)nc2c1 [Example 109, 2-(2,4-Dichloro-phenylamino)-1H-benzimidazole-5-carboxylic acid (4-bromo-phenyl)-amide]	100%	–
N-(4-Bromophenyl)-1-methyl-2-(2-(4-morpholino)phenylamino)-1H-benzimidazole-5-carboxamide [Example 555]	–	% inhib.: 70%
Cc1ccc(Cl)c(Nc2nc3cc(C(=O)N[C@H]4CC[C@H](C(F)(F)F)CC4)c(F)cc3[nH]2)c1F [Example 653, 2-(6-Chloro-2-fluoro-3-methyl-phenylamino)-N-(trans-4-trifluoromethyl-cyclohex-1-yl)-6-fluoro-1H-benzimidazole-5-carboxamide]	–	inhibition at 1 µM: 92%
O=C(NCC1CCCCC1)c1ccc2[nH]c(Nc3c(Cl)cccc3Cl)nc2c1 [Example 288, 2-(2,6-Dichloro-phenylamino)-1H-benzimidazole-5-carboxylic acid cyclohexylmethyl-amide]	100%	–
Cn1c(Nc2c(Cl)cccc2Cl)nc2cc(C(=O)NC3CCCCC3)ccc21 [compound 317]	98%	–
CC(C)Oc1cc2[nH]c(Nc3c(Cl)ccc(Cl)c3F)nc2cc1C(=O)NC1CCC2(CC1)CC2 [Example 615, 2-(3,6-Dichloro-2-fluoro-phenylamino)-6-isopropoxy-N-(spiro[2.5]oct-6-yl)-1H-benzimidazole-5-carboxamide]	96%	–

Compound	inhibition at 10 µM	other results
Cn1c(Nc2c(Cl)cccc2Cl)nc2cc(C(=O)NC3(C)CCCCC3)ccc21 [Example 253, 2-(2,6-Dichloro-phenylamino)-1-methyl-1H-benzimidazole-5-carboxylic acid (1-methyl-cyclohexyl)-amide]	100%	–
COc1cc2[nH]c(Nc3c(Cl)ccc(Cl)c3F)nc2cc1C(=O)NC1CCC(C)(C)CC1 [Example 616, 2-(3,6-Dichloro-2-fluoro-phenylamino)-N-(4,4-dimethyl-cyclohex-1-yl)-6-methoxy-1H-benzimidazole-5-carboxamide]	100%	–
CS(=O)(=O)CCn1c(Nc2c(Cl)cccc2Cl)nc2cc(C(=O)Nc3cc(Cl)ccn3)ccc21 [Example 269, 2-(2,6-Dichloro-phenylamino)-1-(2-methanesulfonyl-ethyl)-1H-benzimidazole-5-carboxylic acid (4-chloro-pyridin-2-yl)-amide]	85%	–
Cn1c(Nc2c(Cl)cccc2Cl)nc2cc(C(=O)Nc3ccccc3)ccc21 [Example 20, 2-(2,6-Dichloro-phenylamino)-1-methyl-1H-benzimidazole-5-carboxylic acid phenylamide]	97%	–
Cn1c(Nc2c(Cl)cccc2Cl)nc2cc(C(=O)NC3CC(C)(C)C3)c(F)cc21 [Example 447, 2-(2,6-Dichlorophenylamino)-N-(3,3-dimethylcyclobutyl)-6-fluoro-1-methyl-1H-benzimidazole-5-carboxamide]	99%	–
O=C(N[C@H]1CC[C@H](C(F)(F)F)CC1)c1cc2nc(Nc3c(Cl)ccc(Cl)c3F)[nH]c2cc1F [Example 597, 2-(3,6-Dichloro-2-fluoro-phenylamino)-N-(trans-4-trifluoromethyl-cyclohex-1-yl)-6-fluoro-1H-benzimidazole-5-carboxamide]	100%	–
CCNC(=O)c1cc(Br)c2c(c1)nc(Nc1c(Cl)cccc1Cl)n2C [Example 352, 7-Bromo-2-(2,6-dichloro-phenylamino)-1-methyl-1H-benzimidazole-5-carboxylic acid ethylamide]	71%	–
O=C(NCC1CCCC1)c1ccc2[nH]c(Nc3c(Cl)cccc3Cl)nc2c1 [Example 219, 2-(2,6-Dichloro-phenylamino)-1H-benzimidazole-5-carboxylic acid cyclopentylmethyl-amide]	100%	–
CCCC[C@@H](C)NC(=O)c1cc2nc(Nc3c(Cl)cccc3Cl)[nH]c2cc1F [Example 457, (R)-2-(2,6-Dichlorophenylamino)-6-fluoro-N-(hexan-2-yl)-1H-benzimidazole-5-carboxamide]	100%	–
CCCCCCCCNC(=O)c1cc2nc(Nc3c(Cl)cccc3Cl)n(C)c2cc1F [Example 166, 2-(2,6-Dichloro-phenylamino)-6-fluoro-1-methyl-1H-benzimidazole-5-carboxylic acid octylamide]	100%	–
Cn1c(Nc2c(Cl)cccc2Cl)nc2cc(C(=O)NCCc3cccnc3)ccc21 [Example 259, 2-(2,6-Dichloro-phenylamino)-1-methyl-1H-benzimidazole-5-carboxylic acid (2-pyridin-3-yl-ethyl)-amide]	89%	–
Cn1c(Nc2c(Cl)cccc2Cl)nc2cc(C(=O)NCc3ccccn3)c(F)cc21 [Example 552, 2-(2,6-Dichlorophenylamino)-6-fluoro-1-methyl-N-(pyridin-2-ylmethyl)-1H-benzimidazole-5-carboxamide]	–	% inhib. (10 µM): 77%
Cc1cc2[nH]c(Nc3c(Cl)cccc3Cl)nc2cc1C(=O)Nc1ccc(C(C)(C)C)cc1 [Example 122, 2-(2,6-Dichloro-phenylamino)-6-methyl-1H-benzimidazol-5-carboxylic acid (4-tert.-butyl-phenyl)-amide]	99%	–
COc1cc2c(cc1C(=O)NC1CCC(C)(C)CC1)nc(Nc1c(Cl)ccc(C)c1F)n2C [Example 650, 2-(6-Chloro-2-fluoro-3-methyl-phenylamino)-6-methoxy-N-(4,4-dimethyl-cyclohex-1-yl)-1-methyl-1H-benzimidazole-5-carboxamide]	–	inhibition at 1 µM: 100%
Cn1c(Nc2c(Cl)cccc2Cl)nc2cc(C(=O)Nc3cc(C#N)ccn3)ccc21 [Example 524, N-(4-Cyanopyridin-2-yl)-2-(2,6-dichlorophenylamino)-1-methyl-1H-benzimidazole-5-carboxamide]	98%	–
COc1cc2c(cc1C(=O)Nc1ccc(Br)cc1)nc(Nc1cc(C(F)(F)F)ccc1C(F)(F)F)n2C [Example 640, 2-(2,5-Di-(trifluoromethyl)-phenylamino)-N-(4-bromphenyl)-6-methoxy-1-methyl-1H-benzimidazol-5-carboxamide]	100%	–
CCOc1cc2c(cc1C(=O)NC1CCC3(CC1)CC3)nc(Nc1c(Cl)ccc(Cl)c1F)n2C [Example 609, 2-(3,6-Dichloro-2-fluoro-phenylamino)-6-ethoxy-N-(spiro[2.5]oct-6-yl)-1-methyl-1H-benzimidazole-5-carboxamide]	99%	–
